A short description of assay [1]: Flow cytometric Annexin V-FITC/PI apoptosis assay, combined data sets. The assay is classed as cell-based. Particulars: Homo sapiens, Raji, 24 or 48 hours treatment, 0.5-50 μM, read-out: estimated IC50 (apoptosis). The text has this:
Cell lines and Apoptosis Assays. We used the human leukemia cell lines ALL-1 (Ph+ adult ALL, B-lineage), LOUCY (adult T-lineage ALL; ATCC® CRL-2629™), and RAJI (Burkitt's leukemia/lymphoma; ATCC®, CCL-86) as targets to evaluate the anti-leukemic activity of cinchona alkaloids. In vivo leukemia initiating xenograft clones capable of causing disseminated and fatal leukemia in NOD-SCID mice, derived from primary leukemia cells of 5 patients with relapsed ALL, and the aforementioned 3 leukemia cells lines were treated for 24 hours or 48 hours at 37° C. with cinchona alkaloids at increasing concentrations ranging from 0.5 μM to 50 μM. Controls cells were treated with vehicle (PBS).
Apoptotic death was monitored using multiparameter flow cytometry, as previously reported (Uckun, F. M. et al., British Journal of Haematology, 2011, 153:741-752; Uckun, F. M. et al., J Clin Invest., 2015, 125:1006-18). Controls included vehicle (PBS) treated cells (CON). Cells were analyzed for apoptosis using the standard quantitative flow cytometric apoptosis assay using the Annexin V-FITC Apoptosis Detection Kit from Sigma. The labeled cells were analyzed on a LSR II flow cytometer. The percent apoptosis was calculated using the formula: 100−100×(Percentage of non-apoptotic cells in test sample/Percentage of non-apoptotic cells in untreated control sample). […]

The subject of assay [2] is BT-20 triple-negative breast cancer cell line. Briefly: Clonogenic assay (methylcellulose colony assay). The format is cell-based, human. The method, then: (§1) Clonogenic Assays. The cytotoxicity of cinchona alkaloids was tested against clonogenic human cancer cells was examined using a methylcellulose colony assay system, as described previously (Uckun, F. M. et al., J. Exp. Med., 1986, 163: 347-68; Uckun, F. M. et al., J. Clin. Invest., 1993, 91: 1044-1051). In brief, cells (10^5 cells/ml in RPMI-10% fetal bovine serum) were treated for 8 hours at 37° C. with cinchona alkaloids at varying concentrations. After treatment, cells were washed twice, and resuspended in clonogenic medium consisting of RPMI 1640 supplemented with 0.9% methylcellulose, 10% fetal bovine serum, and 50 μM 2-mercaptoethanol. Cells were plated at 5×10^4 cells/ml in RPMI 1640 supplemented with 10% fetal bovine serum, and 0.9% methylcellulose in duplicate 35-mm Petri dishes, and cultured for 7 days at 37° C. in a humidified 5% CO2 incubator. Subsequently, cancer cell colonies were enumerated on a grid using an inverted phase-contrast microscope of high optical resolution. Results were expressed as the % Inhibition=[1−(Number of colonies in compound-treated test cultures/Number of colonies in vehicle-treated control cultures)]×100.
as §1, with “cytotoxicity of synthetic dimeric cinchona alkaloids” for “cytotoxicity of cinchona alkaloids”

The values below come from patent publication US11649232B2, “Synthetic dimeric cinchona alkaloids against cancer” (Ares Pharmaceuticals, LLC, priority 2021, dated 2023).

pIC50: −log10 of the molar value.

For the molecule `CCC1(O)CCN2CCC1C[C@@H]2[C@@H](Oc1nnc(O[C@H](c2ccnc3ccc(OC)cc23)[C@@H]2N3CC[C@H]4C(O)(CC)CC243)c2ccccc12)c1ccnc2ccc(OC)cc12` (mixture of isomers) [ARES-BI-C001453], the pIC50 in assay [1] is 5.07; in assay [2] (Homo sapiens, BT-20, two independent experiments, non-linear regression, read-out: IC50, inhibition of clonogenic growth) it was 6.43. The “Colonies/5 × 10^4 Cells” value in assay [2] (BT-20 EXP#1, 1 μM) stood at 21.5 Colonies/5 × 10^4 Cells; in assay [2] (BT-20 EXP#1, 3 μM), 10.0 Colonies/5 × 10^4 Cells; in assay [2] (BT-20 EXP#1, 10 μM), 0.0 Colonies/5 × 10^4 Cells; in assay [2] (BT-20 EXP#2, 1 μM) it was 40.0 Colonies/5 × 10^4 Cells; in assay [2] (BT-20 EXP#2, 3 μM), 9.5 Colonies/5 × 10^4 Cells; in assay [2] (BT-20 EXP#2, 10 μM) it was 1.0 Colonies/5 × 10^4 Cells. Moreover, the inhibition at 1 µM in assay [2] (Homo sapiens, BT-20, BT-20 EXP#1, 1 μM) turned out to be 78%; in assay [2] (Homo sapiens, BT-20, BT-20 EXP#2, 1 μM), 64.9%. The inhibition at 3 µM amounted to 89.8% in assay [2] (Homo sapiens, BT-20, BT-20 EXP#1, 3 μM) and 91.7% in assay [2] (Homo sapiens, BT-20, BT-20 EXP#2, 3 μM). Moreover, the inhibition at 10 µM in assay [2] (Homo sapiens, BT-20, BT-20 EXP#1, 10 μM) is > 98.9%; in assay [2] (Homo sapiens, BT-20, BT-20 EXP#2, 10 μM) it was 99.1%.
